Measurements from US7345078B2, “NF-κB inhibitors and uses thereof” (The Board of Trustees of Michigan State University, priority 2002, dated 2008).
Where two headings read alike, the source gives them in different places. Marks after values point to notes of the source that are not given here.

Experiments:
[1] = molecular target: T1, NF-κB (Homo sapiens, UniProt P19838+Q04206); assay: EMSA of nuclear NF-κB-DNA binding in nuclear extracts of PMA-stimulated Jurkat leukemia T-cells; format: cell-based; set-up: endogenous in cells; host or cells: Jurkat leukemia T-cells, clone E6-1 (ATCC), PMA-stimulated; nuclear extract
Protocol: (§1) All compounds were evaluated for their potential anti-inflammatory activity by examining the activity of NF-κB in vitro in nuclear extracts using the procedure from Breton and Charbot-Fletcher (Breton et al., J. Pharmacol. Exp. Ther. 282 459-466 (1997)). […] The Jurkat cells (1×10^7 cells/mL) are subsequently treated with various concentrations of imidazoline for 30 minutes at 37° C. followed by PMA stimulation (5.0 ng/mL) for an additional 5 hours. Nuclear extracts are incubated for 20 minutes with a double stranded Cy3 labeled NF-κB consensus oligonucleotide, 5′-[…]-3′ (SEQ ID NO:1) at room temperature. The crude mixture is loaded on a 5% non-denaturing polyacrylamide gel prepared in 1×Tris borate/EDTA buffer and electrophoresed at 200V for 2 hours. After electrophoresis the gel is analyzed using a phosphorimager (Biorad FX PLUS) for detection of the NF-κB-DNA binding.
EMSA assay for NF-κB-DNA binding was as follows. […] The Jurkat cells (1×10^6 cells/mL) were subsequently treated with various concentrations of the compounds for 30 minutes at 37° C. and 5% CO2 followed by PMA (50 ng/mL) and PHA ([…]) stimulation for an additional 30 minutes. The cells were harvested by centrifugation, washed in ice cold PBS and the nuclear extracts were prepared as previously described (Dignam, et al., Nucl. Acids Res 11: 1475-1489 (1983)). The protein concentration of the extracts was determined according to the Method of Bradford (1976) with BioRad reagents. Nuclear extracts are incubated for 20 minutes at room temperature with a double stranded Cy3 labeled NF-kB consensus oligonucleotide, 5′-[…] CCAGGC-3′ (SEQ ID NO:1). The binding mixture ([…]) contained 10 mM HEPES-NaOH pH 7.9, 4 mM tris-HCl, pH 7.9, 6.0 mM KCl, 1 mM EDTA, 1 mM DTT, 10% glycerol, 0.3 mg/mL bovide serum albumin and […] of poly (dI.dC). The binding mixtures ([…] of nuclear extract protein) were incubated for 20 minutes at room temrperature with 0.16 pmol of Cy3 labeled oligonucleotide. The mixture was loaded on a 4% polyacrylamide gel prepared in 1× tris borate/EDTA buffer and was electrophoresed at 200 V for 20 minutes. After electrophoresis the gel was analyzed using a phosphorimager (Biorad FX plus) for detection of the NF-kB—DNA binding.

[2] = molecular target: T1, NF-κB; assay: IC50 values in Mammalian Jurkat cells Leukemia T cells; format: cell-based; set-up: endogenous in cells; host or cells: Jurkat leukemia T-cells, clone E6-1 (ATCC), PMA-stimulated; nuclear extract; details: concentration at which 50% of the protein/enzyme is inhibited in cells
Protocol: as §1
IC50 values in Mammalian Jurkat cells Leukemia T cells: IC50 value is defined as the concentration of compounds at which 50% of the protein/enzyme is inhibited in cells (Table 3).

[3] = test system: RIF-1 murine tumor; assay: RIF-1 murine model of tumor growth delay; format: in vivo, mice; details: for Days Delay (tumor growth delay) / Median (days to 4x) / Days to 4x (Ave ±SE) / T/C (ratio of Days to 4x of treated over untreated controls): IP, imidazoline 100 mg/kg, cis-platin 4 mg/kg, camptothecin 6 mg/kg; for Median (days to 4x): untreated 7.0; for Days to 4x (Ave ±SE): untreated 7.3 ± 0.6; for chemopotentiation of camptothecin: combinational treatment with camptothecin (CPT); for chemopotentiation of camptothecin / chemopotentiation of cis-platin: RIF-1 tumors in mice; for chemopotentiation of cis-platin: combinational treatment with cis-platin (CDDP)
Protocol: Tumor cells were injected, bilaterally, into the backs of mice. When tumors reached 100 mm^3, the mice were treated with an intraperitoneal injection of the compound. Tumor volumes were measured 3 times a week until they reached 4 times the size they were on the first treatment day. Data is recorded as “Days to 4×’ or ratio of ‘Days to 4×” of the treated over untreated controls.

[4] = test system: CEM cells; details: for sensitization of CEM cells towards camptothecin: camptothecin 0.1 μM
Protocol: Imidazolines 28-33 were evaluated for their ability to enhance the activity of camptothecin in CEM cells. Induction of apoptosis is the hallmark of most chemotherapeutic agents including camptothecin. The systematic disassembly of apoptotic cells is accomplished by active caspases (Thornberry et al., Nature 356: 768-774 (1992); Nicholson et al., Trends Biochem. Sci. 22: 299-306 (1997)). A standard apoptosis assay is Promega's APO-ONE homogeneous caspase-3/7 assay, which takes advantage of this caspase activity to directly quantify the induction of apoptosis in cells (Thornberry et al., Nature 356: 768-774 (1992); Nicholson et al., Trends Biochem. Sci. 22: 299-306 (1997)). According to the hypothesis that NF-κB inhibition should enhance the activity of chemotherapeutic agents via the inhibition of anti-apoptotic signaling pathway—thus enhancement of apoptosis—(Boland, Biochem Soc Trans 29: 674-678 (2001); Chiao et al., Cancer 95: 1696-1705 (2002)), we investigated the effects of the imidazolines using this caspase-3/7 assay. This assay quantifies the level of apoptotic cell death induced by camptothecin with and without the imidazolines and will establish the direct level of enhancement of apoptosis by camptothecin.
Induction of apoptosis using caspase 3/7 assay was as follows. CEM cells (CCRF-CEM); Amer. Type Culture Collection, Rockville, Md.) were grown in RPMI-1640 Media (Gibco-BRL, Rockville, Md.) supplemented with 10% fetal bovine serum, penicillin (614 ηg/mL), streptomycin (10 μg/mL) and hepes buffer, pH 7.2 at 37° C., 5% CO2. DMSO was used as the vector for all drugs and added in the control experiments. Cell cultures were treated with 1 μM, 0.1 μM or 10 nM of the imidazolines and allowed to incubate at 37° C., 5% CO2. An aliquote was transferred to a 96-well plate and mixed with an equal volume of Apo-ONE™ Homogenous Caspase-3/7 assay (Promega Corporation) reagent. The contents of the plate were gently mixed and allowed to incubate for 1 hour. The fluorescence of each well was then measured on a Molecular Imager FX Pro at 532 nm. All reported data was the average of two independent experiments unless otherwise indicated.

[5] = molecular target: T1, NF-κB; assay: EMSA of camptothecin activated NF-κB in CEM leukemia T-cells; format: cell-based; set-up: endogenous in cells; nuclear extract; details: camptothecin 10 μM to 10 nM, 2 hours
Protocol: CEM cells were incubated with and without varying concentrations of camptothecin (CPT). Positive controls included PMA/PHA activation (FIG. 11, lane 2). Lane 3 included a positive control using PMA/PHA activation followed by the treatment of the extract with a NF-κB p65 antibody to unambiguously identify the NF-κB/DNA complex.
CEM cells were treated with various concentration of imidazoline 32, 30 minutes prior to activation by camptothecin (0.1 μM). […] Control lanes include: DNA only (lane 1), PMA/PHA activated NF-κB (lane 2), PMA/PHA activated NF-κB treated with a p65 antibody, which provide a supershift (lane 3) and the unactivated control (lane 4).
EMSA assay for NF-κB-DNA binding was as follows. […] The cells were harvested by centrifugation, washed in ice cold PBS and the nuclear extracts were prepared as previously described (Dignam, et al., Nucl. Acids Res 11: 1475-1489 (1983)). The protein concentration of the extracts was determined according to the Method of Bradford (1976) with BioRad reagents. Nuclear extracts are incubated for 20 minutes at room temperature with a double stranded Cy3 labeled NF-kB consensus oligonucleotide, 5′-[sequence] […] The binding mixture (25 mL) contained 10 mM HEPES-NaOH pH 7.9, 4 mM tris-HCl, pH 7.9, 6.0 mM KCl, 1 mM EDTA, 1 mM DTT, 10% glycerol, 0.3 mg/mL bovide serum albumin and 1 mg of poly (dI.dC). The binding mixtures (10 mg of nuclear extract protein) were incubated for 20 minutes at room temrperature with 0.16 pmol of Cy3 labeled oligonucleotide. The mixture was loaded on a 4% polyacrylamide gel prepared in 1× tris borate/EDTA buffer and was electrophoresed at 200 V for 20 minutes. After electrophoresis the gel was analyzed using a phosphorimager (Biorad FX plus) for detection of the NF-kB—DNA binding.

[6] = IP, doses 5.0 and 50 mg/kg
Protocol: Prior to the combinatorial studies, the toxicity of the compounds was determined in the mouse model. […] In short, the drugs are dissolved in DMSO and 100 μL given to the mice on day 0 by intraperitoneal injection (IP). […] Weight and death were the two measures of toxicity.

T1 sequence (Q04206 whole entry): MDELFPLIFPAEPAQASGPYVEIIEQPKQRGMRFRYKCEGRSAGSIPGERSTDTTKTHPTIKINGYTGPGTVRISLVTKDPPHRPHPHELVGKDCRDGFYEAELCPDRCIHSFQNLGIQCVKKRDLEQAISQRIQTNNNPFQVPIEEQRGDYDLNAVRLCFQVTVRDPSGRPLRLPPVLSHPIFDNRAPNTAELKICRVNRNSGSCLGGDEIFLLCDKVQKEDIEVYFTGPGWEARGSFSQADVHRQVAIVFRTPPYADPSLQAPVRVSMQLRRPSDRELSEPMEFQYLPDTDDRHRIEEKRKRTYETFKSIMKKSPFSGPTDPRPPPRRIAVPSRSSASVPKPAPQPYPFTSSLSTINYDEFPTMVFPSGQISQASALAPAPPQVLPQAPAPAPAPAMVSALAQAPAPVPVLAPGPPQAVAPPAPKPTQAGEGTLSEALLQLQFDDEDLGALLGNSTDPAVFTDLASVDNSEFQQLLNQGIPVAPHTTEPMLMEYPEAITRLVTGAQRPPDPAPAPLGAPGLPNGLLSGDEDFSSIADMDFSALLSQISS
T1 sequence (P19838 1-433 limits assumed): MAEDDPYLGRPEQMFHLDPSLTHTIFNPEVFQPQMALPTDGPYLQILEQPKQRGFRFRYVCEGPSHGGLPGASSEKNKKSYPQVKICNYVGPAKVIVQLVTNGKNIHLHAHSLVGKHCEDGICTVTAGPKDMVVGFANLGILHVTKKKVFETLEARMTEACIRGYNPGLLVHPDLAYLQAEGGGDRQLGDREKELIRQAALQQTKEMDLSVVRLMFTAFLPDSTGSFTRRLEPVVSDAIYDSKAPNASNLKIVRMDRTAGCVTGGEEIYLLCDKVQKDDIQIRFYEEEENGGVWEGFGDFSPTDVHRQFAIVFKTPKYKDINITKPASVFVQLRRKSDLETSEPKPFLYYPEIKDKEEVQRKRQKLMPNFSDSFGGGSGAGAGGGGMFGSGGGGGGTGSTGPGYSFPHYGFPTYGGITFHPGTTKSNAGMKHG

CCOC(=O)[C@H]1N(c2ccc(F)cc2)C(c2ccccc2)=N[C@]1(C)C(=O)O (racemic) [Compound 8, Dl-(3S,4S)-1-(4-Fluorophenyl)-4-methyl-2-phenyl-4,5-dihydro-1H-imidazole-4,5-dicarboxylic acid 5-ethyl ester]
% inhibition of NF-κB ([1]; compound 0.1 μM (100 nM)): 88% | % inhibition of NF-κB ([1]; compound 1.0 μM): 94%

CCOC(=O)[C@@]1(C)N=C(c2ccccc2)N(Cc2ccccc2)[C@H]1c1ccncc1 (racemic) [Compound 9, Dl-(3S,4S)-1-Benzyl-4-methyl-2-phenyl-5-pyridin-4-yl-4,5-dihydro-1H-imidazole-4-carboxylic acid ethyl ester]
% inhibition of NF-κB ([1]; compound 0.1 μM (100 nM), 0.1 µM): 71%

C[C@]1(C(=O)O)N=C(c2ccccc2)N(c2ccc(F)cc2)[C@H]1c1ccccc1 (racemic) [Compound 3, Dl-(3S,4S)-1-(4-Fluorophenyl)-4-methyl-2,5-diphenyl-4,5-dihydro-1H-imidazole-4-carboxylic acid]
inhibition at 1 µM ([1]; compound 1.0 μM): 35% | IC50 [2]: 0.0065 µM | Days Delay (tumor growth delay) [3]: -0.20 days | Median (days to 4x) [3]: 6.8 days | Days to 4x (Ave ±SE) [3]: 7.6 ± 1.0 days | chemopotentiation of camptothecin [3]: no significant chemopotentiation | chemopotentiation of cis-platin [3]: no significant chemopotentiation

COc1ccc([C@@H]2N(Cc3ccccc3)C(c3ccccc3)=N[C@]2(C)C(=O)O)cc1 (racemic) [Compound 2, Dl-(3S,4S)-1-Benzyl-5-(4-methoxyphenyl)-4-methyl-2-phenyl-4,5-dihydro-1H-imidazole-4-carboxylic acid]
inhibition at 1 µM ([1]; compound 1.0 μM): 68% | IC50 [2]: 0.04 µM

CCOC(=O)C1(C)N=C(c2ccccc2)N(Cc2ccccc2)C1c1ccccc1 (racemic) [Compound 10, Dl-(3S,4S)-1-Benzyl-4-methyl-2,5-diphenyl-4,5-dihydro-1H-imidazole-4-carboxylic acid ethyl ester]
% inhibition of NF-κB ([1]; compound 0.1 μM (100 nM)): 22%

O=C(O)C1(Cc2c[nH]c3ccccc23)N=C(c2ccccc2)N(Cc2ccccc2)C1c1ccccc1 (racemic) [Compound 5, Dl-(3S,4S)-1-Benzyl-4-(1H-indol-3-ylmethyl)-2,5-diphenyl-4,5-dihydro-1H-imidazole-4-carboxylic acid]
% inhibition of NF-κB ([1]; compound 1.0 μM): 0%

C[C@]1(C(=O)O)N=C(c2ccccc2)N(Cc2ccccc2)[C@H]1c1ccccc1 (racemic) [Compound 1, Dl-(3S,4S)-1-Benzyl-4-methyl-2,5-diphenyl-4,5-dihydro-1H-imidazole-4-carboxylic acid]
inhibition at 1 µM ([1]; compound 1.0 μM): 19% | IC50 [2]: 1.95 µM | Days Delay (tumor growth delay) [3]: -0.57 days | Median (days to 4x) [3]: 6.4 days | Days to 4x (Ave ±SE) [3]: 6.5 ± 0.3 days | chemopotentiation of camptothecin [3]: no significant chemopotentiation | chemopotentiation of cis-platin [3]: no significant chemopotentiation

N.N.[Cl][Pt][Cl] [Cis-platin, cis-platin, reference compound]
Days Delay (tumor growth delay) [3]: 0.82 days | T/C (ratio of Days to 4x of treated over untreated controls) [3]: 1.1 | Median (days to 4x) [3]: 7.8 days | Days to 4x (Ave ±SE) [3]: 8.1 ± 0.4 days

CC[C@@]1(O)C(=O)OCc2c1cc1n(c2=O)Cc2cc3ccccc3nc2-1 [Camptothecin, camptothecin, reference compound]
Fold enhancement of camptothecin (0.1 μM) after 48 hours ([4]; CEM cells, imidazoline 1.0 μM + CPT 0.1 μM versus CPT 0.1 μM): 1.00 | Days Delay (tumor growth delay) [3]: 3.79 days | T/C (ratio of Days to 4x of treated over untreated controls) [3]: 1.4 | Median (days to 4x) [3]: 10.8 days | Days to 4x (Ave ±SE) [3]: 10.3 ± 0.6 days | NF-κB/DNA binding due to NF-κB activation [5]: significant amount of NF-κB/DNA binding

CCOC(=O)[C@H]1N(c2ccc(F)cc2)C(c2ccccc2)=N[C@@]1(C(=O)O)c1ccccc1 (racemic) [Compound 30, dl-(4S,5S)-1-(4-Fluorophenyl)-2,4-diphenyl-4,5-dihydro-1H-imidazole-4,5-dicarboxylic acid 5-ethyl ester]
Apoptosis (±S.D.) [4]: 1.18 ± 0.20 | sensitization of CEM cells towards camptothecin ([4]; 0.01 μM imidazoline): sensitization | sensitization of CEM cells towards camptothecin ([4]; 0.1 μM imidazoline): sensitization | sensitization of CEM cells towards camptothecin ([4]; 1 μM imidazoline): sensitization

CCOC(=O)[C@H]1N(c2ccc(F)cc2)C(c2ccccc2)=N[C@]1(C)C(=O)O (racemic) [Compound 29, dl-(4S,5S)-1-(4-Fluorophenyl)-4-methyl-2-phenyl-4,5-dihydro-1H-imidazole-4,5-dicarboxylic acid 5-ethyl ester]
Apoptosis (±S.D.) ([4]; Compound 1.0 μm alone, T-cells, 48 hour period, cells only = 1.00 (normalized)): 0.95 ± 0.24

C[C@]1(C(=O)O)N=C(c2ccccc2)N(Cc2ccccc2)[C@H]1c1ccccc1 (racemic) [Compound 33, dl-(4S,5S)-1-Benzyl-4-methyl-2,5-diphenyl-4,5-dihydro-1H-imidazole-4-carboxylic acid]
tolerability in mice [6]: well tolerated

C[C@]1(C(=O)O)N=C(c2ccccc2)N(Cc2ccccc2)[C@H]1c1ccncc1 (racemic) [Compound 31, dl-(4S,5S)-1-Benzyl-4-methyl-2-phenyl-5-pyridin-4yl-4,5-dihydro-1H-imidazole-4-carboxylic acid]
Apoptosis (±S.D.) [4]: 1.18 ± 0.00^b | sensitization of CEM cells towards camptothecin ([4]; 0.01 μM imidazoline): sensitization | sensitization of CEM cells towards camptothecin ([4]; 0.1 μM imidazoline): sensitization | sensitization of CEM cells towards camptothecin ([4]; 1 μM imidazoline): sensitization
